# From US8455442B2, “Peptides having binding affinity to an antibody which recognizes an epitope on an α1 loop 2 or β2 loop 1 of an adrenoreceptor” (MDC Max-Delbruck-Centrum fur Molekulare Medizin Berlin-Buch, priority 2008, dated 2013)
# How the values were obtained:
# α1 adrenergic receptor = experiment: Antagonist block of patient-antibody stimulation of the beating rate of cultured neonatal rat cardiomyocytes; type: cell-based; conditions: FIG. 1; prazosin given in addition to ICI 118,551; patient immunoglobulins on rat cardiomyocytes
# Text: (§1) Preparation of the immunoglobulin fraction.
# (§2) The buffer was changed five times during dialysis.
# [1] = tested on: antibodies from patients with Morbus Alzheimer directed to the α1A Adrenoceptor; experiment: Peptide neutralization of the antibody-mediated increase of the beating rate (neonatal rat cardiomyocyte bioassay); type: cell-based, human; conditions: FIG. 6; overlapping peptides of the second extracellular loop of the α1A Adrenoceptor co-incubated with patient immunoglobulins (n=5)
# Description: as §1, §2
# (§3) After the dialysis, the IgG fractions feature a concentration of 10-15 mg/ml, a maximum of 10 μg/ml of which are specific receptor antibodies. 50 μl of this IgG solution are pre-incubated with the peptides with the following concentration of peptides: 5 μl of a buffered solution of 100 μg/ml per 50 μl IgG solution. This mixture is pre-incubated at room temperature for 30 minutes and subsequently filled into the cell culture vials, after the former nutrient solution has been removed by pipet. The amount of the medium is 2 ml. The final concentration therefore is of […] for the IgG and 0.5 μg for the peptides. If the molecular weight of the peptide (10 mer) is set with 1 KD and that of the IgG is set with 150 KD, there is an excess of […].
# (§4) For the neutralization experiments, synthetic peptides corresponding to the sequence of the three extracellular loops of the human β2 AR or α1A-AR was added in excess (0.5 μg in 50 μl) to 50 μl of the immunoglobulin fraction. The mixtures were shaken and incubated at room temperature for 1 h. The 100-μl samples were then added to neonatal rat heart muscle cells cultured in 2 ml medium to a final dilution of 1:40. The beating rate was counted for 15 s, about 60 min after the addition of the peptide/immunoglobulin mixture. […]
# [2] = tested on: antibodies from patients with Morbus Alzheimer directed to the β2 Adrenoceptor; experiment: as above; type: cell-based, human; conditions: FIG. 3; overlapping epitope peptides of loop 1 of the β2-AR co-incubated with patient immunoglobulins (n=6)
# Description: as §1, §2, §3, §4
compound,measurement,setting,value
COc1cc2nc(N3CCN(C(=O)c4ccco4)CC3)nc(N)c2cc1OC [prazosin],inhibition of cellular activity of contraction,α1 adrenergic receptor,more effective inhibition
APEDET [peptide embedded in the second extracellular loop of the α1A Adrenoceptor],neutralisation of the cellular activity of the immunoglobulins,[1],neutralises
FGNFWCE,neutralisation of antibody mediated increase of the beating rate,[2],neutralisation
